PubChem BioAssay (NCI)
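Tested at 5 concentrations; 48 h exposure; 96-well plates; endpoints linearly interpolated, else capped at highest concentration. The concentration for 50% growth inhibition is given as GI50. TGI marks complete inhibition of growth.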

What was measured:
Assay in all cases: NCI anticancer screen, dose series, 48 h
UACC-257 melanoma = test system: UACC-257 melanoma
RXF 393 renal = test system: RXF 393 renal
SN12C renal = test system: SN12C renal
NCI-H522 lung = test system: NCI-H522 lung
OVCAR-8 ovarian = test system: OVCAR-8 ovarian
KM12 colon = test system: KM12 colon
SK-MEL-5 melanoma = test system: SK-MEL-5 melanoma
SF-268 CNS = test system: SF-268 CNS
T-47D breast = test system: T-47D breast
HCT-15 colon = test system: HCT-15 colon
M14 melanoma = test system: M14 melanoma
A549 NSCLC = test system: A549 NSCLC
MCF7 breast = test system: MCF7 breast
HOP-92 NSCLC = test system: HOP-92 NSCLC
DU-145 prostate = test system: DU-145 prostate
NCI-H460 lung = test system: NCI-H460 lung
COLO 205 colon = test system: COLO 205 colon
PC-3 prostate = test system: PC-3 prostate
MOLT-4 leukemia = test system: MOLT-4 leukemia
MALME-3M melanoma = test system: MALME-3M melanoma
HT29 colon = test system: HT29 colon
CAKI-1 renal = test system: CAKI-1 renal
SK-MEL-2 melanoma = test system: SK-MEL-2 melanoma
UO-31 renal = test system: UO-31 renal
SR leukemia = test system: SR leukemia
A498 renal = test system: A498 renal
SK-OV-3 ovarian = test system: SK-OV-3 ovarian
K-562 leukemia = test system: K-562 leukemia
OVCAR-3 ovarian = test system: OVCAR-3 ovarian
MDA-MB-435 = test system: MDA-MB-435
NCI-H226 lung = test system: NCI-H226 lung
786-0 renal = test system: 786-0 renal
SW-620 colon = test system: SW-620 colon
SF-295 CNS = test system: SF-295 CNS
HOP-62 NSCLC = test system: HOP-62 NSCLC
TK-10 renal = test system: TK-10 renal
RPMI-8226 leukemia = test system: RPMI-8226 leukemia
BT-549 breast = test system: BT-549 breast
HL-60(TB) leukemia = test system: HL-60(TB) leukemia
HCC-2998 colon = test system: HCC-2998 colon
SNB-75 CNS = test system: SNB-75 CNS
CCRF-CEM leukemia = test system: CCRF-CEM leukemia
OVCAR-4 ovarian = test system: OVCAR-4 ovarian
EKVX NSCLC = test system: EKVX NSCLC
HS 578T breast = test system: HS 578T breast
IGROV1 ovarian = test system: IGROV1 ovarian
NCI-H23 lung = test system: NCI-H23 lung
ACHN renal = test system: ACHN renal
SK-MEL-28 melanoma = test system: SK-MEL-28 melanoma
OVCAR-5 ovarian = test system: OVCAR-5 ovarian
U251 CNS = test system: U251 CNS
HCT-116 colon = test system: HCT-116 colon
NCI/ADR-RES ovarian = test system: NCI/ADR-RES ovarian
UACC-62 melanoma = test system: UACC-62 melanoma
SNB-19 CNS = test system: SNB-19 CNS
MDA-MB-231 breast = test system: MDA-MB-231 breast
SF-539 CNS = test system: SF-539 CNS
LOX IMVI melanoma = test system: LOX IMVI melanoma

COc1cc2cc(Oc3ccc(NC(=O)Nc4cc(C(F)(F)F)cc(C(F)(F)F)c4)cc3)c(C)nc2cc1OCCN1CCCCC1
GI50 (UACC-257 melanoma): 1.98 µM
TGI (UACC-257 melanoma): 3.97 µM
GI50 (RXF 393 renal): 1.59 µM
TGI (RXF 393 renal): 3.2 µM
GI50 (SN12C renal): 1.68 µM
TGI (SN12C renal): 3.22 µM
GI50 (NCI-H522 lung): 1.72 µM
TGI (NCI-H522 lung): 3.46 µM
GI50 (OVCAR-8 ovarian): 1.87 µM
TGI (OVCAR-8 ovarian): 3.72 µM
GI50 (KM12 colon): 1.91 µM
TGI (KM12 colon): 3.47 µM
GI50 (SK-MEL-5 melanoma): 1.69 µM
TGI (SK-MEL-5 melanoma): 3.08 µM
GI50 (SF-268 CNS): 1.69 µM
TGI (SF-268 CNS): 3.37 µM
GI50 (T-47D breast): 1.85 µM
TGI (T-47D breast): 3.77 µM
GI50 (HCT-15 colon): 1.62 µM
TGI (HCT-15 colon): 3.09 µM
GI50 (M14 melanoma): 1.68 µM
TGI (M14 melanoma): 3.16 µM
GI50 (A549 NSCLC): 1.8 µM
TGI (A549 NSCLC): 3.62 µM
GI50 (MCF7 breast): 1.68 µM
TGI (MCF7 breast): 3.43 µM
GI50 (HOP-92 NSCLC): 1.24 µM
TGI (HOP-92 NSCLC): 2.57 µM
GI50 (DU-145 prostate): 1.71 µM
TGI (DU-145 prostate): 3.08 µM
GI50 (NCI-H460 lung): 1.79 µM
TGI (NCI-H460 lung): 3.35 µM
GI50 (COLO 205 colon): 1.89 µM
TGI (COLO 205 colon): 3.62 µM
GI50 (PC-3 prostate): 1.49 µM
TGI (PC-3 prostate): 2.85 µM
GI50 (MOLT-4 leukemia): 1.73 µM
TGI (MOLT-4 leukemia): 3.7 µM
GI50 (MALME-3M melanoma): 1.59 µM
TGI (MALME-3M melanoma): 3.02 µM
GI50 (HT29 colon): 1.83 µM
TGI (HT29 colon): 3.37 µM
GI50 (CAKI-1 renal): 1.42 µM
TGI (CAKI-1 renal): 2.86 µM
GI50 (SK-MEL-2 melanoma): 1.85 µM
TGI (SK-MEL-2 melanoma): 3.57 µM
GI50 (UO-31 renal): 1.28 µM
TGI (UO-31 renal): 2.55 µM
GI50 (SR leukemia): 1.75 µM
TGI (SR leukemia): 5.79 µM
GI50 (A498 renal): 1.75 µM
TGI (A498 renal): 3.23 µM
GI50 (SK-OV-3 ovarian): 2.04 µM
TGI (SK-OV-3 ovarian): 3.9 µM
GI50 (K-562 leukemia): 1.5 µM
TGI (K-562 leukemia): 3.31 µM
GI50 (OVCAR-3 ovarian): 1.64 µM
TGI (OVCAR-3 ovarian): 3.03 µM
GI50 (MDA-MB-435): 1.78 µM
TGI (MDA-MB-435): 3.22 µM
GI50 (NCI-H226 lung): 1.7 µM
TGI (NCI-H226 lung): 3.96 µM
GI50 (786-0 renal): 1.71 µM
TGI (786-0 renal): 3.25 µM
GI50 (SW-620 colon): 1.79 µM
TGI (SW-620 colon): 3.27 µM
GI50 (SF-295 CNS): 1.83 µM
TGI (SF-295 CNS): 3.38 µM
GI50 (HOP-62 NSCLC): 1.64 µM
TGI (HOP-62 NSCLC): 3.3 µM
GI50 (TK-10 renal): 2.06 µM
TGI (TK-10 renal): 3.71 µM
GI50 (RPMI-8226 leukemia): 2.08 µM
TGI (RPMI-8226 leukemia): 4.72 µM
GI50 (BT-549 breast): 1.8 µM
TGI (BT-549 breast): 3.41 µM
GI50 (HL-60(TB) leukemia): 2.25 µM
TGI (HL-60(TB) leukemia): 4.67 µM
GI50 (HCC-2998 colon): 1.78 µM
TGI (HCC-2998 colon): 3.29 µM
GI50 (SNB-75 CNS): 1.45 µM
TGI (SNB-75 CNS): 2.99 µM
GI50 (CCRF-CEM leukemia): 2.11 µM
TGI (CCRF-CEM leukemia): 4.71 µM
GI50 (OVCAR-4 ovarian): 1.89 µM
TGI (OVCAR-4 ovarian): 3.61 µM
GI50 (EKVX NSCLC): 1.81 µM
TGI (EKVX NSCLC): 3.44 µM
GI50 (HS 578T breast): 1.93 µM
TGI (HS 578T breast): 4.67 µM
GI50 (IGROV1 ovarian): 1.35 µM
TGI (IGROV1 ovarian): 2.79 µM
GI50 (NCI-H23 lung): 1.75 µM
TGI (NCI-H23 lung): 3.32 µM
GI50 (ACHN renal): 1.63 µM
TGI (ACHN renal): 2.99 µM
GI50 (SK-MEL-28 melanoma): 1.66 µM
TGI (SK-MEL-28 melanoma): 3.07 µM
GI50 (OVCAR-5 ovarian): 1.63 µM
TGI (OVCAR-5 ovarian): 3.02 µM
GI50 (U251 CNS): 1.79 µM
TGI (U251 CNS): 3.41 µM
GI50 (HCT-116 colon): 1.75 µM
TGI (HCT-116 colon): 3.24 µM
GI50 (NCI/ADR-RES ovarian): 1.68 µM
TGI (NCI/ADR-RES ovarian): 3.24 µM
GI50 (UACC-62 melanoma): 1.82 µM
TGI (UACC-62 melanoma): 3.31 µM
GI50 (SNB-19 CNS): 1.71 µM
TGI (SNB-19 CNS): 3.18 µM
GI50 (MDA-MB-231 breast): 1.52 µM
TGI (MDA-MB-231 breast): 2.99 µM
GI50 (SF-539 CNS): 1.65 µM
TGI (SF-539 CNS): 3.03 µM
GI50 (LOX IMVI melanoma): 1.71 µM
TGI (LOX IMVI melanoma): 3.17 µM
